The text below walks through data of US11691976B2, “Coelenterazine analogues” (PROMEGA CORPORATION, priority 2018, dated 2023).

Molecules are shown by their SMILES.

Chain of NANOLUC® Luciferase (Q9GV45 28-196 with tags or gaps with the stated changes limits assumed): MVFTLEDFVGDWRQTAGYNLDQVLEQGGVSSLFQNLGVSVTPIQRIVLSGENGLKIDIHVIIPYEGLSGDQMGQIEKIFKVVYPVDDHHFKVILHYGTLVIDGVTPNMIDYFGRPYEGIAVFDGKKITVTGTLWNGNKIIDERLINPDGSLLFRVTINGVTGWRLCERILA

The test has as its target NANOLUC® Luciferase (Oplophorus gracilirostris, UniProt Q9GV45, A31E/A60N/A81I/F95D/I117V/K70R/L54V/L99Q/M102K/N193R/P142E/Q151K/Q38R/Q45L/V71I/Y165I). As to the kind of experiment: Luminescence assay: substrate titration with purified NANOLUC Luciferase (RLU, signal half-life, Km). Type of test: biochemical. Conditions: 100 μM substrate; initial light output three minutes after substrate addition; relative to furimazine set to 1.0. The method, then:
Each compound to be screened was dissolved in DMSO (5 mM) and then further diluted to 100 μM in NANO-GEO® Luciferase Assay Buffer. A two-fold dilution series was prepared for each substrate by serially diluting 500 μl of the substrate solution with 500 μl of NANO-GLO® Luciferase Assay Buffer. Each diluted substrate titration was then combined in equal volumes with purified NANOLUC® Luciferase diluted into CO2 independent media+10% FBS. Initial light output for each substrate was measured in a GLOMAX®-Multi+ luminometer three minutes after substrate addition and then at five minute intervals as a means to determine signal half-life. Signal half-life was calculated using GraphPad Prism One Phase Decay regression and Km and Vmax were calculated using GraphPad Prism using Michaelis-Menten regression.
The synthesized coelenterazine analogues (compounds of formula (I) and (II)) were evaluated for their suitability as luciferase substrates. NANOLUC® luciferase was employed for the screening because it is a small (19 kDa), stable, and particularly bright enzyme. […] RLU, half-life, and Km values are for furimazine is set to 1.0. […]
Turning to `O=c1c(Cc2ccco2)nc2c(Cc3ccccc3)[nH]c(-c3ccc(Cl)c(O)c3)cn1-2` [JRW-1483, 8-benzyl-6-(4-chloro-3-hydroxyphenyl)-2-(furan-2-ylmethyl)imidazo[1,2-a]pyrazin-3(7H)-one], the “RLU (@100 μM)” value is 0.008.

Consider `Nc1cccc(-c2cn3c(=O)c(Cc4ccco4)nc-3c(Cc3c(F)cccc3F)[nH]2)c1F` [JRW-1747, 6-(3-amino-2-fluorophenyl)-8-(2,6-difluorobenzyl)-2-(furan-2-ylmethyl)imidazo[1,2-a]pyrazin-3(7H)-one], for which the “RLU (@100 μM)” value worked out at 2.1. Regarding `COCc1cccc(Cc2nc3c(Cc4ccccc4)[nH]c(-c4cccc(O)c4)cn-3c2=O)c1` [JRW-0373, 8-benzyl-6-(3-hydroxyphenyl)-2-(3-(methoxymethyl)benzyl)imidazo[1,2-a]pyrazin-3(7H)-one], the “RLU (@100 μM)” value was found to be 0.27. Take `Cc1ccc(Cc2nc3c(Cc4ccccc4)[nH]c(-c4cccc(O)c4)cn-3c2=O)o1` [JRW-1056, 8-benzyl-6-(3-hydroxyphenyl)-2-((5-methylfuran-2-yl)methyl)imidazo[1,2-a]pyrazin-3(7H)-one]: the “RLU (@100 μM)” value is reported as 1.1. The figure for `O=c1c(Cc2ccco2)nc2c(Cc3ccccc3)[nH]c(-c3cc(O)cc(Cl)c3)cn1-2` [JRW-1479, 8-benzyl-6-(3-chloro-5-hydroxyphenyl)-2-(furan-2-ylmethyl)imidazo[1,2-a]pyrazin-3(7H)-one] is 0.43; for `Nc1ccc(F)c(-c2cn3c(=O)c(Cc4ccco4)nc-3c(Cc3ccccc3)[nH]2)c1` [JRW-1411, 6-(5-amino-2-fluorophenyl)-8-benzyl-2-(furan-2-ylmethyl)imidazo[1,2-a]pyrazin-3(7H)-one] it is 0.001; for `Nc1cccc(-c2cn3c(=O)c(Cc4ccc(F)cc4)nc-3c(Cc3ccccc3)[nH]2)c1F` [JRW-1635, 6-(3-amino-2-fluorophenyl)-8-benzyl-2-(4-fluorobenzyl)imidazo[1,2-a]pyrazin-3(7H)-one] it is 1.0. `COCc1cccc(Cc2nc3c(Cc4ccccc4)[nH]c(-c4cccc(O[Si](C)(C)C(C)(C)C)c4)cn-3c2=O)c1` [JRW-0372, 8-benzyl-6-(3-((tert-butyldimethylsilyl)oxy)phenyl)-2-(3-(methoxymethyl)benzyl)imidazo[1,2-a]pyrazin-3(7H)-one]: the “RLU (@100 μM)” value is listed as 0.00033. The figure for `Cc1cccc(Cc2[nH]c(-c3cccc(O)c3F)cn3c(=O)c(Cc4ccco4)nc2-3)c1` [JRW-1370, 6-(2-fluoro-3-hydroxyphenyl)-2-(furan-2-ylmethyl)-8-(3-methylbenzyl)imidazo[1,2-a]pyrazin-3(7H)-one] is 0.036. Take `Cc1cccc(Cc2[nH]c(-c3cccc(O)c3)cn3c(=O)c(Cc4ccco4)nc2-3)c1` [JRW-1368, 2-(furan-2-ylmethyl)-6-(3-hydroxyphenyl)-8-(3-methylbenzyl)imidazo[1,2-a]pyrazin-3(7H)-one]: the “RLU (@100 μM)” value was 0.032.

For the molecule `O=c1c(Cc2ccco2)nc2c(Cc3ccccc3)[nH]c(-c3cc(O)ccc3Cl)cn1-2` [JRW-1525, 8-benzyl-6-(2-chloro-5-hydroxyphenyl)-2-(furan-2-ylmethyl)imidazo[1,2-a]pyrazin-3(7H)-one], the “RLU (@100 μM)” value is on record as 0.4. For `Cc1c(O)cccc1-c1cn2c(=O)c(Cc3ccco3)nc-2c(Cc2ccccc2)[nH]1` [JRW-1645, 8-benzyl-2-(furan-2-ylmethyl)-6-(3-hydroxy-2-methylphenyl)imidazo[1,2-a]pyrazin-3(7H)-one] the value was 0.07; for `COc1cccc(Cc2nc3c(Cc4ccccc4)[nH]c(-c4cccc(O)c4)cn-3c2=O)c1` [JRW-1047, 8-benzyl-6-(3-hydroxyphenyl)-2-(3-methoxybenzyl)imidazo[1,2-a]pyrazin-3(7H)-one], 0.5; for `Cc1c(N)cccc1-c1cn2c(=O)c(Cc3ccco3)nc-2c(Cc2ccccc2)[nH]1` [JRW-1642, 6-(3-amino-2-methylphenyl)-8-benzyl-2-(furan-2-ylmethyl)imidazo[1,2-a]pyrazin-3(7H)-one], 0.04.

Turning to `O=c1c(Cc2ccccc2)nc2c(Cc3ccccc3)[nH]c(-c3cccc(O)c3)cn1-2` [JRW-1043, 2,8-dibenzyl-6-(3-hydroxyphenyl)imidazo[1,2-a]pyrazin-3(7H)-one], the “RLU (@100 μM)” value is given as 0.8.

Regarding `O=c1c(Cc2ccco2)nc2c(Cc3ccccc3)[nH]c(-c3cccc(O)c3Cl)cn1-2` [JRW-1488, 8-benzyl-6-(2-chloro-3-hydroxyphenyl)-2-(furan-2-ylmethyl)imidazo[1,2-a]pyrazin-3(7H)-one], the “RLU (@100 μM)” value stood at 0.31. For `O=c1c(Cc2ccco2)nc2c(Cc3ccccc3F)[nH]c(-c3cccc(O)c3F)cn1-2` [JRW-1668, 6-(2-fluoro-3-hydroxyphenyl)-8-(2-fluorobenzyl)-2-(furan-2-ylmethyl)imidazo[1,2-a]pyrazin-3(7H)-one] the value was 1.5; for `COc1ccc(Cc2nc3c(Cc4ccccc4)[nH]c(-c4cccc(O)c4)cn-3c2=O)cc1` [JRW-1052, 8-benzyl-6-(3-hydroxyphenyl)-2-(4-methoxybenzyl)imidazo[1,2-a]pyrazin-3(7H)-one], 0.4.

Turning to `Nc1cccc(-c2cn3c(=O)c(Cc4ccco4)nc-3c(Cc3ccccc3F)[nH]2)c1F` [JRW-1667, 6-(3-amino-2-fluorophenyl)-8-(2-fluorobenzyl)-2-(furan-2-ylmethyl)imidazo[1,2-a]pyrazin-3(7H)-one], the “RLU (@100 μM)” value is 2.1.

For `O=c1c(Cc2ccco2)nc2c(Cc3ccccc3)[nH]c(-c3cc(O)ccc3F)cn1-2` [JRW-1405, 8-benzyl-6-(2-fluoro-5-hydroxyphenyl)-2-(furan-2-ylmethyl)imidazo[1,2-a]pyrazin-3(7H)-one], the “RLU (@100 μM)” value amounted to 1.0. For `O=c1c(Cc2ccc(F)cc2)nc2c(Cc3ccccc3)[nH]c(-c3cccc(O)c3)cn1-2` [JRW-0786, 8-benzyl-2-(4-fluorobenzyl)-6-(3-hydroxyphenyl)imidazo[1,2-a]pyrazin-3(7H)-one], the “RLU (@100 μM)” value is 0.88.

Consider `O=c1c(Cc2cccs2)nc2c(Cc3ccccc3)[nH]c(-c3cccc(O)c3F)cn1-2` [JRW-1624, 8-benzyl-6-(2-fluoro-3-hydroxyphenyl)-2-(thiophen-2-ylmethyl)imidazo[1,2-a]pyrazin-3(7H)-one], for which the “RLU (@100 μM)” value is 0.84. As for `O=c1c(Cc2ccc3c(c2)OCO3)nc2c(Cc3ccccc3)[nH]c(-c3cccc(O)c3)cn1-2` [JRW-0777, 2-(benzo[d][1,3]dioxol-5-ylmethyl)-8-benzyl-6-(3-hydroxyphenyl)imidazo[1,2-a]pyrazin-3(7H)-one], the “RLU (@100 μM)” value amounted to 0.45. For `Nc1cccc(-c2cn3c(=O)c(Cc4ccc(C(F)(F)F)o4)nc-3c(Cc3ccccc3)[nH]2)c1F` [JRW-1610, 6-(3-amino-2-fluorophenyl)-8-benzyl-2-((5-(trifluoromethyl)furan-2-yl)methyl)imidazo[1,2-a]pyrazin-3(7H)-one] the value was 0.71; for `O=c1c(Cc2ccco2)nc2c(Cc3ccccc3)[nH]c(-c3cc(O)cc(F)c3)cn1-2` [JRW-1526, 8-benzyl-6-(3-fluoro-5-hydroxyphenyl)-2-(furan-2-ylmethyl)imidazo[1,2-a]pyrazin-3(7H)-one], 1.0; for `Nc1cccc(-c2cn3c(=O)c(Cc4ccco4)nc-3c(Cc3ccccc3)[nH]2)c1F` [JRW-1482, 6-(3-amino-2-fluorophenyl)-8-benzyl-2-(furan-2-ylmethyl)imidazo[1,2-a]pyrazin-3(7H)-one], 1.7. The figure for `O=c1c(Cc2ccco2)nc2c(Cc3ccc(F)cc3)[nH]c(-c3cccc(O)c3)cn1-2` [JRW-1498, 8-(4-fluorobenzyl)-2-(furan-2-ylmethyl)-6-(3-hydroxyphenyl)imidazo[1,2-a]pyrazin-3(7H)-one] is 0.049; for `O=c1c(Cc2ccco2)nc2c(Cc3ccccc3)[nH]c(-c3cccc(O)c3F)cn1-2` [JRW-1404, 8-benzyl-6-(2-fluoro-3-hydroxyphenyl)-2-(furan-2-ylmethyl)imidazo[1,2-a]pyrazin-3(7H)-one] it is 1.2. For `Nc1cc(F)cc(-c2cn3c(=O)c(Cc4ccco4)nc-3c(Cc3ccccc3)[nH]2)c1` [JRW-1535, 6-(3-amino-5-fluorophenyl)-8-benzyl-2-(furan-2-ylmethyl)imidazo[1,2-a]pyrazin-3(7H)-one] the value was 0.73; for `Nc1cc(-c2cn3c(=O)c(Cc4ccco4)nc-3c(Cc3ccccc3)[nH]2)ccc1F` [JRW-1536, 6-(3-amino-4-fluorophenyl)-8-benzyl-2-(furan-2-ylmethyl)imidazo[1,2-a]pyrazin-3(7H)-one], 0.08. On to `O=c1c(Cc2ccc(C(F)(F)F)o2)nc2c(Cc3ccccc3)[nH]c(-c3cccc(O)c3F)cn1-2` [JRW-1619, 8-benzyl-6-(2-fluoro-3-hydroxyphenyl)-2-((5-(trifluoromethyl)furan-2-yl)methyl)imidazo[1,2-a]pyrazin-3(7H)-one], for which the “RLU (@100 μM)” value is given as 0.85. In the case of `O=c1c(Cc2ccco2)nc2c(Cc3ccccc3)[nH]c(-c3cccc([N+](=O)[O-])c3)cn1-2` [JRW-1424, 8-benzyl-2-(furan-2-ylmethyl)-6-(3-nitrophenyl)imidazo[1,2-a]pyrazin-3(7H)-one], the “RLU (@100 μM)” value is reported as 0.14.
